Measurements as given in patent US20080279800A1, “AROMACHEMICALS” (Flexitral, Inc., priority 2007, published 2008).

Experiment: Toxicology tests, oral LD50
Conditions: rat, in vivo, rats

Q: Which LD50 does the source give for `CC(C(C)C(C)(C)C)C(C)C1(C)CO1` (stereo not shown) [2-methyl-2-(1,2,3,4,4-pentamethylpentyl)oxirane] here?
A: > 2000 mg/kg
